In article PMC9851200, “Multiparameter phenotypic screening for endogenous TFEB and TFE3 translocation identifies novel chemical series modulating lysosome function” (Autophagy, 2022):

Legend:
[1] = target: PIKFYVE (Homo sapiens, UniProt Q9Y2I7); conditions: cited from earlier work
[2] = target: BMPR1B (Homo sapiens, UniProt O00238); conditions: cited from earlier work
[3] = target: CSNK1E (Homo sapiens, UniProt P49674); conditions: cited from earlier work
[4] = target: T1, PRKD1 (Homo sapiens, UniProt Q15139); conditions: cited from earlier work
T1 sequence (Q15139 1-912): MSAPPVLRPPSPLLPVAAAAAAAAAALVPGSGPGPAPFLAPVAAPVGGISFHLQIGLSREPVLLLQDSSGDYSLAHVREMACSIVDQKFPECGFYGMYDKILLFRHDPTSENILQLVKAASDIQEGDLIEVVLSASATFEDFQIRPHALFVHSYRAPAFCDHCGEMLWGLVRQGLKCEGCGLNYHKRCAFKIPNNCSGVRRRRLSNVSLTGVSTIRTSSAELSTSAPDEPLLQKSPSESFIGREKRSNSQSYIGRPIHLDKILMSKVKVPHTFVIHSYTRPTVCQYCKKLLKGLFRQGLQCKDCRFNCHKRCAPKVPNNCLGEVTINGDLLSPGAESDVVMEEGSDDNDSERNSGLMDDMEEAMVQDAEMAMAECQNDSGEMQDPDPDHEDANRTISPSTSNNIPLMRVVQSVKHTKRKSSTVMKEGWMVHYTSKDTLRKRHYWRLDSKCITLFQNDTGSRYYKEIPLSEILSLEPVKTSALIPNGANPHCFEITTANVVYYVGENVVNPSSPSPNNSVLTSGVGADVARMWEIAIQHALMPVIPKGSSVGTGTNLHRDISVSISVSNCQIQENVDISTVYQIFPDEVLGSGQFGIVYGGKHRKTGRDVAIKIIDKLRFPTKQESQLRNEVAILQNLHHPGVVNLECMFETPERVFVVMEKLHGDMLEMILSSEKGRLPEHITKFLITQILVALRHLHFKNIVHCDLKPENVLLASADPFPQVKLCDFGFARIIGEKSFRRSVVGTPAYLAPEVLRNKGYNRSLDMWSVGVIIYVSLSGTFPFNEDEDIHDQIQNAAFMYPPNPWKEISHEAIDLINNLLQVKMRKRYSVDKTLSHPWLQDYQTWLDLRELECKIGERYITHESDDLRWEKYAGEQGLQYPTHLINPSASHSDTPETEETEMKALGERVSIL

[5] = target: T2, ACVR1B (Homo sapiens, UniProt P36896); conditions: cited from earlier work
T2 sequence (P36896 24-505): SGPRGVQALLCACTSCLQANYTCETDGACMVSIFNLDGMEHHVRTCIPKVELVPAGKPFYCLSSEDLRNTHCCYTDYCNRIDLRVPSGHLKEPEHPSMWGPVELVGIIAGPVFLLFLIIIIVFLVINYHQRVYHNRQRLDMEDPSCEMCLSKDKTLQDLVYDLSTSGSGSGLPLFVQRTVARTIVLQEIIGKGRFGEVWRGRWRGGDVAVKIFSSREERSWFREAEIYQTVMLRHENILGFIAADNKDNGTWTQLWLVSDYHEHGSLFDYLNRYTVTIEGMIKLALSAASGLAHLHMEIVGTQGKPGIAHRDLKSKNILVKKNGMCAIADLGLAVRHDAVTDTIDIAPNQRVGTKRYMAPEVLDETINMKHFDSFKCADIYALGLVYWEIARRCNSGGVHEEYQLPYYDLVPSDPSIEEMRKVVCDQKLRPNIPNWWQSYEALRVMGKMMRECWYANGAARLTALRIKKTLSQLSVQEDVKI

[6] = tested on: endogenous TFE3; assay: TFE3 nuclear translocation, immunocytochemistry high-content imaging; format: cell-based; conditions: for TFE3 %: PKIS2 primary screening; for nTFE3 %: primary screen, 1 µM
[7] = tested on: SH-SY5Y cells; conditions: PKIS2 primary screening; for DQ Intensity: DQ Red BSA intensity; for DQ Spot: DQ Red BSA spot count
Text: The PKIS2 Library was supplied by The Structural Genomics Consortium at the University of North Carolina at Chapel Hill.

[8] = target: STK10/LOK (Homo sapiens, UniProt O94804); conditions: cited from earlier work
STK10/LOK, sequence (O94804 whole entry): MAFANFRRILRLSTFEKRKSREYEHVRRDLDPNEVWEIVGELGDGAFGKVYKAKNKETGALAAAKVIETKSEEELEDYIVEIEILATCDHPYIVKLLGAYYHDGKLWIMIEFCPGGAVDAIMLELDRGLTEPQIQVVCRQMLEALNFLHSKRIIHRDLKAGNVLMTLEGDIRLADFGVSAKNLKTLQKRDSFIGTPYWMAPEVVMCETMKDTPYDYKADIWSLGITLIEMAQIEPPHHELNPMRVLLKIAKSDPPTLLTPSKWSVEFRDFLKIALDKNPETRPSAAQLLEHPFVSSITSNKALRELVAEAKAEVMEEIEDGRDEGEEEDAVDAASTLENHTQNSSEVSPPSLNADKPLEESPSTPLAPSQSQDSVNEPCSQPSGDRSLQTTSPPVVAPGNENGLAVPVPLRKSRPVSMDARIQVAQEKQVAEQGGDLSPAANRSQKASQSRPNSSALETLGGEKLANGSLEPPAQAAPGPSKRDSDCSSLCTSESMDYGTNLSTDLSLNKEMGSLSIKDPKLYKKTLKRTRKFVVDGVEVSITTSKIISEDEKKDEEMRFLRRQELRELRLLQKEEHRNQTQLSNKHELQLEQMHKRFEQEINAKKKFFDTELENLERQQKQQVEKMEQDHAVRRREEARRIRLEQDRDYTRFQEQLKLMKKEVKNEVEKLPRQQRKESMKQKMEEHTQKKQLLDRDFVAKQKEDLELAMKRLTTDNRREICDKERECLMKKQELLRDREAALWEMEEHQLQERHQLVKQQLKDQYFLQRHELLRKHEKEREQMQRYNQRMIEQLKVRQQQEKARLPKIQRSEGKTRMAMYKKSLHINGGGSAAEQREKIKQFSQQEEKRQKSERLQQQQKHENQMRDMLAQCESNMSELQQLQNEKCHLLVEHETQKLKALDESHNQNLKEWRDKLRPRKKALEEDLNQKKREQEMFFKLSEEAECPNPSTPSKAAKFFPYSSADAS

[9] = target: T3, TGFBR1 (Homo sapiens, UniProt P36897); conditions: cited from earlier work
T3 sequence (P36897 34-503): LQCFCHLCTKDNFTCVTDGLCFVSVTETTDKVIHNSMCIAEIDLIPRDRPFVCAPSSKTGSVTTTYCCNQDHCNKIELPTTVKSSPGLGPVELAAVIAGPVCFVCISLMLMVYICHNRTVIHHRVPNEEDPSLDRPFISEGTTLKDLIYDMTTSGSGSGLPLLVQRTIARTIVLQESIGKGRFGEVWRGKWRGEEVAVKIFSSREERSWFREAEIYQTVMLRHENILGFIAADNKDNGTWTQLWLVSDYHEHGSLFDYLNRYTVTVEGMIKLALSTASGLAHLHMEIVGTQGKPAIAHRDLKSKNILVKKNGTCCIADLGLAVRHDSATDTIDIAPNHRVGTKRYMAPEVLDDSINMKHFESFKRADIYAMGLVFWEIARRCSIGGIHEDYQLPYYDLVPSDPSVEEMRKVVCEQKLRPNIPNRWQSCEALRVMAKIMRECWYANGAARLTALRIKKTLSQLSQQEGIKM

[10] = target: MAPK9/JNK2 (Homo sapiens, UniProt P45984); conditions: cited from earlier work
MAPK9/JNK2, sequence (P45984 whole entry): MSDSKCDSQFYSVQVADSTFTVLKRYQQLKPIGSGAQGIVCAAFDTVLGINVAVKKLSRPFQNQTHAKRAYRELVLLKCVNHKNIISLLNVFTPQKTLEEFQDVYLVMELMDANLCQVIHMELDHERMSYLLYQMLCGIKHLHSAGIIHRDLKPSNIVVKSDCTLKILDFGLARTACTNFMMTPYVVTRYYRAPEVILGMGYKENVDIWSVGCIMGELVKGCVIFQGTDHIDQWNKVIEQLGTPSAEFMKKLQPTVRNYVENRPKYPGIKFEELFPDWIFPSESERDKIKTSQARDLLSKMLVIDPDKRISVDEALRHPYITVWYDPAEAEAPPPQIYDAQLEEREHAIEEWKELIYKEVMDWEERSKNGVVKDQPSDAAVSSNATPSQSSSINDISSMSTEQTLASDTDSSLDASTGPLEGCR

[11] = target: MAPK10/JNK3 (Homo sapiens, UniProt P53779); conditions: cited from earlier work
MAPK10/JNK3, sequence (P53779 whole entry): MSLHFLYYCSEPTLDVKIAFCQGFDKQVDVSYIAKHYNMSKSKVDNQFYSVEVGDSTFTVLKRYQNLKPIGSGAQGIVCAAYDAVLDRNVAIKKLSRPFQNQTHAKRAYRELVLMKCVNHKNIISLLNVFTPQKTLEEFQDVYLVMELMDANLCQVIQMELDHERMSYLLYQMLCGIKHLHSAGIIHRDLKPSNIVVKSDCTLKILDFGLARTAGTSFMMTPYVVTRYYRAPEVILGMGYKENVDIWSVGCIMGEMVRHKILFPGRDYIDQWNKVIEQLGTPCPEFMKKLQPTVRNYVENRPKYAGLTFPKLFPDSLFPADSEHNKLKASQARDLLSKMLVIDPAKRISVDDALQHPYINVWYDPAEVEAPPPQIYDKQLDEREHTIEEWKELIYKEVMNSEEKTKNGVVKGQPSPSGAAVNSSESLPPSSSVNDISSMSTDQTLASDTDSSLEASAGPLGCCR

[12] = target: MINK1/MINK (Homo sapiens, UniProt Q8N4C8); conditions: cited from earlier work

CSNK1E, sequence (P49674 whole entry): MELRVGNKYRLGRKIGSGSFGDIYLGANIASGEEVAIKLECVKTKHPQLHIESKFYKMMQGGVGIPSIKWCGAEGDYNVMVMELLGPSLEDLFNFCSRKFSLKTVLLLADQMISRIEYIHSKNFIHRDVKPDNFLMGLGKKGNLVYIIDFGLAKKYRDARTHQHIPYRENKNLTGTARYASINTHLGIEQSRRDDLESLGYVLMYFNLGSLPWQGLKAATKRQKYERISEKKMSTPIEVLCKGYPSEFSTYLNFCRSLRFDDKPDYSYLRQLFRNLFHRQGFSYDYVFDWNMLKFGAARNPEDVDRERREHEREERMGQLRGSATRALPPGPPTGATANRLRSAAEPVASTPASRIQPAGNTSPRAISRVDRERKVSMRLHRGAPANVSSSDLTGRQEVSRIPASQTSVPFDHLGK
PIKFYVE, sequence (Q9Y2I7 whole entry): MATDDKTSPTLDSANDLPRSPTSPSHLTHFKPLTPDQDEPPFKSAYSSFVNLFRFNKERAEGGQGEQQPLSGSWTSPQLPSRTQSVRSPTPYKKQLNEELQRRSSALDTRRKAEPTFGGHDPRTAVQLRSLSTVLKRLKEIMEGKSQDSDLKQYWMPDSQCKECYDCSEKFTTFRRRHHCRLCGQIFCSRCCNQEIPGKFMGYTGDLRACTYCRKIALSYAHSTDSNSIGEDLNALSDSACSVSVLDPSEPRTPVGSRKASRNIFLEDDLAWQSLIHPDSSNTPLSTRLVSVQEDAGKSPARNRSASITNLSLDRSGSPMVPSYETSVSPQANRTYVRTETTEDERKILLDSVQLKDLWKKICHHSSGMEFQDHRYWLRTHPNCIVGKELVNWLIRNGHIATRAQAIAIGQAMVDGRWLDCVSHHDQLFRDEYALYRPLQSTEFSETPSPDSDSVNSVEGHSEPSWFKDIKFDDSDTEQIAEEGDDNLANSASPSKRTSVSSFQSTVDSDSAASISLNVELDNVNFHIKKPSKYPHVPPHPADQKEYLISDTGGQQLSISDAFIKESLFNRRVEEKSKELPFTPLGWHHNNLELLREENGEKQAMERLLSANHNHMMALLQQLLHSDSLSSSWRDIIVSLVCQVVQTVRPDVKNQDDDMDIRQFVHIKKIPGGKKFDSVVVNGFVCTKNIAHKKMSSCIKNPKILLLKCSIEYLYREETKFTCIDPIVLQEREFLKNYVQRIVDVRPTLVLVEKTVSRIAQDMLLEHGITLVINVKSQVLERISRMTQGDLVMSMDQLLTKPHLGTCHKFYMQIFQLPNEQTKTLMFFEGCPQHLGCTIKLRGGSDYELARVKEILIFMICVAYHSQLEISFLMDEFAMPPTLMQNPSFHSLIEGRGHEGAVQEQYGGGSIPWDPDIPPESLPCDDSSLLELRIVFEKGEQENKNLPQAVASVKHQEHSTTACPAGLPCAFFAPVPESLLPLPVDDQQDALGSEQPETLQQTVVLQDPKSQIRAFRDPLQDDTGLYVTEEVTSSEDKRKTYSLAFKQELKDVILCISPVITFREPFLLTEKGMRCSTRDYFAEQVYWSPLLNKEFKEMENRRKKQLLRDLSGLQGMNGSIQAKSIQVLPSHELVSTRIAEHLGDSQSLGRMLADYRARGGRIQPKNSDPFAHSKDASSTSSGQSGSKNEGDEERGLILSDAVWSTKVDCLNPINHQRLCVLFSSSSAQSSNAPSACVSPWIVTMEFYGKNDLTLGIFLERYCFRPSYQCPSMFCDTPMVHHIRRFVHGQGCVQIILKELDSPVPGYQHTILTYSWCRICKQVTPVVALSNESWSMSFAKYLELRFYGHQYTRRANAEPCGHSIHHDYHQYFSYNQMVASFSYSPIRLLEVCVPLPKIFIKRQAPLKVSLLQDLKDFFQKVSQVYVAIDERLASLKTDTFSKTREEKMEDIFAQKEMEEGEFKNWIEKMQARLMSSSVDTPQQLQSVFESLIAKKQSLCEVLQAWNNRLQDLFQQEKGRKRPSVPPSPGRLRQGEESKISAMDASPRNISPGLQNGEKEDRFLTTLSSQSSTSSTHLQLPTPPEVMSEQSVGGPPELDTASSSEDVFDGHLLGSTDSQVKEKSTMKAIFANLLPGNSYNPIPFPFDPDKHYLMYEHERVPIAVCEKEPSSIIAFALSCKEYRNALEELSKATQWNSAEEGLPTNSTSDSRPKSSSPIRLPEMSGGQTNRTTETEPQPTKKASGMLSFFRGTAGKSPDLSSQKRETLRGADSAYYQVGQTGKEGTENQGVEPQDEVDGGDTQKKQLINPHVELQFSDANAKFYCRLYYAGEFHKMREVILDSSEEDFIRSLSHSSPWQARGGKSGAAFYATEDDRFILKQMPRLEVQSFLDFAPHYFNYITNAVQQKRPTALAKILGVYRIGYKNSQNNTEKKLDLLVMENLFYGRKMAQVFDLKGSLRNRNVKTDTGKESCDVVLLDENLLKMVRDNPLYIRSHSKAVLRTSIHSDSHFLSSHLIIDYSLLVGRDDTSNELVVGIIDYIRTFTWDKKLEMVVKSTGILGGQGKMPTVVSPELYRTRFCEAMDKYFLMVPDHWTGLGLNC
BMPR1B, sequence (O00238 14-502): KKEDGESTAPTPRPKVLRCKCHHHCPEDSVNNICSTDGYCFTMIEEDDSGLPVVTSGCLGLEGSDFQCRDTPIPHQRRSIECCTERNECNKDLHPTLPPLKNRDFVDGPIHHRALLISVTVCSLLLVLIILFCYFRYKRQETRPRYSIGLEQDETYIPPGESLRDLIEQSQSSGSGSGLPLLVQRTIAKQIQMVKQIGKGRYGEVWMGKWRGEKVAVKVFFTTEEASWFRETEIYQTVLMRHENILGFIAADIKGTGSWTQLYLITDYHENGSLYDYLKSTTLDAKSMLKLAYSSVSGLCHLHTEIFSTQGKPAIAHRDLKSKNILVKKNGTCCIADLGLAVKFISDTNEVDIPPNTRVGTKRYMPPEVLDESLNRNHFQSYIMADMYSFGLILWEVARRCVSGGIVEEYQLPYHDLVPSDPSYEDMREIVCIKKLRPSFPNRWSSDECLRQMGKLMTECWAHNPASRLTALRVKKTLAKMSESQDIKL

SMILES | KINOMEscan binding PIKFYVE [1] [%] | KINOMEscan binding BMPR1B [2] [%] | KINOMEscan binding CSNK1E [3] [%] | KINOMEscan binding PRKD1 [4] [%] | KINOMEscan binding ACVR1B [5] [%] | TFE3 % [6] [%] | nTFE3 % ([6]; 24 h, SH-SY5Y) [%] | DQ Intensity [7] | DQ Spot [7] | KINOMEscan binding STK10/LOK [8] [%] | KINOMEscan binding MAPK9/JNK2 [10] [%] | KINOMEscan binding MAPK10/JNK3 [11] [%] | KINOMEscan binding MINK1/MINK [12] [%] | other results
Cc1cccc(-c2nc(Nc3ccncc3)c3ccccc3n2)n1 [GW855857] | 57 | 29 | 77 | 86 | 94.3 | 15.51 | 15.5 | 79.80 | 95.73 |  |  |  |  | 
Cc1cc(Nc2nc(-c3cccc(C)n3)nc3ccccc23)ccn1 [GW872411] | 53 | 0 | 31 | 99.4 | 73 | 20.21 | 20.2 | 103.32 | 114.14 | 0 | 14 | 0 | 1 | KINOMEscan binding TGFBR1 [9]: 83%
Cc1cccc(-c2nc(Nc3cccc(C(N)=O)c3)c3ccccc3n2)n1 [GW876019] | 16 | 0 | 15 | 64 | 83 | 17.52 | 17.5 | 115.76 | 107.41 |  |  |  |  | 
Cc1cccc(-c2nc(Nc3ccncc3)c3sccc3n2)n1 [GW869641] | 86 | 82 | 94.9 | 99.3 | 96.5 | 6.93 | 6.9 | 90.97 | 102.97 |  |  |  |  | 
COc1ccc2nc(-c3cccc(C)n3)nc(Nc3ccncc3)c2c1 [GSK204919] | 81 | 0 | 64 | 92.4 |  | 7.07 | 7 | 144.99 | 139.38 | 0 | 60 | 36 | 30 | TFE3 translocation (in words) ([6]; SH-SY5Y, 24 h treatment): did not show TFEB and TFE3 activation
Cc1ccc(-c2nc(Nc3ccncc3)c3ccccc3n2)s1 [GSK189015] | 63 | 0 | 22 | 18 | 0 | 15.06 | 15 | 116.90 | 105.30 | 1 | 19 | 14 | 2 | KINOMEscan binding TGFBR1 [9]: 6%
Cc1cccc(-c2nc(Nc3ccncc3)c3ccccc3n2)n1 [NK215] |  |  |  |  |  |  |  |  |  |  |  |  |  | KINOMEscan PIKFYVE ([1]; kinase PIKFYVE, Published KINOMEscan, ref original PKIS2 published data): 57; KINOMEscan BMPR1B ([2]; BMPR1B, Published KINOMEscan, ref original PKIS2 published data): 29; KINOMEscan CSNK1E ([3]; CSNK1E, Published KINOMEscan, ref original PKIS2 published data): 77; KINOMEscan PRKD1 ([4]; PRKD1, Published KINOMEscan, ref original PKIS2 published data): 86; KINOMEscan ACVR1B [5]: 94.3; EC50 ([6]; Homo sapiens, SH-SY5Y, 24 h, read-out: Best-Fit Values EC50): 2040 nM; Best-Fit Values Span ([6]; TFE3 assay concentration response, 24 h, SH-SY5Y): 18.17; Summary ([6]; activity in TFE3 assays compared with original NK-140, OT activity): Weaker
